Measured values from patent publication US6020341A, “Enediyne quinone imines and methods of preparation and use thereof” (priority 1997, dated 2000).
Where two headings read alike, the source gives them in different places.

How the values were obtained:
[1] = system: Human promyelocytic leukemic cell (HL-60); assay: Cytotoxicity, HL-60; type: cell-based; conditions: for IC50 / IC90: Homo sapiens; for IC90: read-out: Cytotoxic Concentration IC90
Description: (§1) | cell growth by 50% (IC50) in μM.

[2] = system: Human acute lymphoblastic T cells (CCRF-CEM); assay: Cytotoxicity, CCRF-CEM; type: cell-based; conditions: for IC50 / IC90: Homo sapiens, CCRF-CEM; for IC90: read-out: Cytotoxic Concentration IC90
Description: as §1

CCRF-CEM/VBL cells = assay: Cytotoxicity, CCRF-CEM resistant to vinblastine; type: cell-based, human; conditions: for IC50 / IC90: Homo sapiens, CCRF-CEM; for IC90: read-out: Cytotoxic Concentration IC90
Description: as §1

CCRF-CEM/VM-1 cells = assay: Cytotoxicity, CCRF-CEM/VM-1; type: cell-based, human; conditions: for IC50 / IC90: Homo sapiens, CCRF-CEM; for IC90: read-out: Cytotoxic Concentration IC90
Description: as §1

[3] = system: Human testicular teratocarcinoma cells (833K); assay: Cytotoxicity, 833K; type: cell-based; conditions: for IC50 / IC90: Homo sapiens, 833K; for IC90: read-out: Cytotoxic Concentration IC90
Description: as §1

[4] = system: Chinese hamster lung cells resistant to actinomycin D (DC-3F/ADII); assay: Cytotoxicity, DC-3F/ADII; type: cell-based; conditions: for IC50 / IC90: Cricetulus griseus, DC3F; for IC90: read-out: Cytotoxic Concentration IC90
Description: as §1

HL-60 cells = assay: Growth inhibition, XTT assay, HL-60; type: cell-based; conditions: Homo sapiens
Procedure: (§2) Cells were platted on day 1, drug was added on day 2, and XTT assays (for HL-60, MT-2, MT-4 leukemic cells) or SRB assays (for 833K and SK-Br-3 solid tumor cells) were carried out on day 5.

MT-2 leukemic cells = assay: Growth inhibition, XTT assay, MT-2; type: cell-based; conditions: Table 8, MT-2, XTT
Procedure: as §2

MT-4 leukemic cells = assay: Growth inhibition, XTT assay, MT-4; type: cell-based; conditions: Table 8, MT-4, XTT
Procedure: as §2

[5] = system: SK-Br-3 solid tumor cells; assay: Growth inhibition, SRB assay, SK-Br-3; type: cell-based; conditions: Homo sapiens, Table 8, SKBr-3, SRB
Procedure: as §2

DC-3F cells = assay: Single drug effect, SRB assay, DC-3F; type: cell-based, Chinese hamster; conditions: Cricetulus griseus, DC3F, Table 10, DC-3F, 72 h, read-out: Dm
MT4 cells = assay: Cytotoxicity, MT4; type: cell-based; conditions: Table 15, MT4
MT2 cells = assay: Cytotoxicity, MT2; type: cell-based; conditions: Table 15, MT2
B-16 melanoma = assay: Antitumor activity against B-16 melanoma in mice (s.c. tumor, i.p. treatment); type: in vivo, mouse
Procedure: ^a Tumor (2 × 10^6 cells) was inoculated s.c. Treatment
started day 4, QD × 5, i.p.; control had nine mice, and each dose
two mice; tumor size was evaluated on Day 7 after the beginning of
started day 4, I.P., QD × 5; control had 3 mice, and each dose had
mice; Tumor size was evaluated on day 7 after the beginning of treatment.

[6] = system: Lewis lung adenocarcinoma; assay: Anticancer activity in BDF mice bearing Lewis lung adenocarcinoma; type: in vivo, mouse
Procedure: ^a Tumor (4 × 10^6 cells) was inoculated S.C. Treatment
started on day 4, I.P., QDX5. Control had 4 mice and each dose had 3 mice
Tumor sizes were evaluated on day 7, day 10 and day 14 after beginning of […]

[7] = Table 14, vinblastine-resistant (VLB100)
[8] = Table 3, CCRF-CEM/VBL, EQI-6 = (1)
[9] = Table 3, CCRF-CEM/VM-1, EQI-6 = (1)
[10] = Table 4, DC-3F/ADII, EQI-6 = (1)
[11] = Homo sapiens, read-out: Cytotoxic Concentration IC50
[12] = Homo sapiens, read-out: Cytotoxic Concentration IC90
[13] = Table 6, 0.2 mg/kg i.p. QD×5, day 7
[14] = Table 6, 0.5 mg/kg i.p. QD×5, day 7
[15] = Table 6, 2.0 mg/kg i.p. QD×5, day 7

CO[C@@]12[C@H](COC(N)=O)C3=C(C(=O)C(C)=C(N)C3=O)N1C[C@@H]1N[C@@H]12 [mitomycin C]
IC50 ([1]; HL-60, Table 1, HL-60, read-out: IC50): 48.4 nM
IC50 ([1]; HL-60, Table 2, HL60, read-out: concentration required to inhibit cell growth by 50% (IC50)): 48 nM
IC50 ([1]; HL-60, Table 3, HL-60, read-out: Cytotoxic Concentration IC50): 48.4 nM
IC90 ([1]; HL-60, Table 3, HL-60): 197 nM
IC50 ([1]; HL-60, Table 15, HL-60, read-out: Cytotoxic Concentration IC50): 51 nM
IC90 ([1]; HL-60, Table 15, HL-60): 167 nM
Cytotoxic Concentration IC95 ([1]; Table 3, HL-60): 319 nM
ratio of IC50 to EQI-6 (in parentheses) ([1]; Table 3, HL-60, EQI-6 = (1)): 83.4 ×
ratio of IC90 to EQI-6 (in parentheses) ([1]; Table 3, HL-60, EQI-6 = (1)): 75.8 ×
ratio of IC95 to EQI-6 (in parentheses) ([1]; Table 3, HL-60, EQI-6 = (1)): 72.5 ×
Cytotoxic Concentration IC95 ([1]; Table 15, HL-60): 250 nM
IC50 ([2]; Table 1, CCRF-CEM, read-out: IC50): 140 nM
IC50 ([2]; Table 2, CCRF/CEM, read-out: concentration required to inhibit cell growth by 50% (IC50)): 140 nM
IC50 ([2]; Table 3, CCRF-CEM, read-out: Cytotoxic Concentration IC50): 140 nM
IC90 ([2]; Table 3, CCRF-CEM): 364 nM
IC50 ([2]; Table 14, CCRF-CEM, read-out: Cytotoxic Concentration IC50): 96 nM
IC90 ([2]; Table 14, CCRF-CEM): 370 nM
Cytotoxic Concentration IC95 ([2]; Table 3, CCRF-CEM): 503 nM
ratio of IC50 to EQI-6 (in parentheses) ([2]; Table 3, CCRF-CEM, EQI-6 = (1)): 280 ×
ratio of IC90 to EQI-6 (in parentheses) ([2]; Table 3, CCRF-CEM, EQI-6 = (1)): 165 ×
ratio of IC95 to EQI-6 (in parentheses) ([2]; Table 3, CCRF-CEM, EQI-6 = (1)): 136 ×
Cytotoxic Concentration IC95 ([2]; Table 14, CCRF-CEM): 584 nM
IC50 (CCRF-CEM/VBL cells; Table 2, CCRF/VBL (MDR/pg-p), read-out: concentration required to inhibit cell growth by 50% (IC50)): 566 nM
IC50 (CCRF-CEM/VBL cells; Table 3, CCRF-CEM/VBL, read-out: Cytotoxic Concentration IC50): 566 nM
IC90 (CCRF-CEM/VBL cells; Table 3, CCRF-CEM/VBL): 2330 nM
IC50 (CCRF-CEM/VBL cells; Table 14, vinblastine-resistant (VLB100), read-out: Cytotoxic Concentration IC50): 917 nM
IC90 (CCRF-CEM/VBL cells; [7]): 2400 nM
Cytotoxic Concentration IC95 (CCRF-CEM/VBL cells; Table 3, CCRF-CEM/VBL): 3770 nM
ratio of IC50 to EQI-6 (in parentheses) (CCRF-CEM/VBL cells; [8]): 299.5 ×
ratio of IC90 to EQI-6 (in parentheses) (CCRF-CEM/VBL cells; [8]): 375.8 ×
ratio of IC95 to EQI-6 (in parentheses) (CCRF-CEM/VBL cells; [8]): 405.4 ×
Cytotoxic Concentration IC95 (CCRF-CEM/VBL cells; [7]): 3327 nM
IC50 (CCRF-CEM/VM-1 cells; Table 2, CCRF/VM-1 (MDR/TopoII), read-out: concentration required to inhibit cell growth by 50% (IC50)): 216 nM
IC50 (CCRF-CEM/VM-1 cells; Table 3, CCRF-CEM/VM-1, read-out: Cytotoxic Concentration IC50): 216 nM
IC90 (CCRF-CEM/VM-1 cells; Table 3, CCRF-CEM/VM-1): 895 nM
IC50 (CCRF-CEM/VM-1 cells; Table 14, CCRF-CEM/VM-1, read-out: Cytotoxic Concentration IC50): 113 nM
IC90 (CCRF-CEM/VM-1 cells; Table 14, CCRF-CEM/VM-1): 675 nM
Cytotoxic Concentration IC95 (CCRF-CEM/VM-1 cells; Table 3, CCRF-CEM/VM-1): 1373 nM
ratio of IC50 to EQI-6 (in parentheses) (CCRF-CEM/VM-1 cells; [9]): 113.7 ×
ratio of IC90 to EQI-6 (in parentheses) (CCRF-CEM/VM-1 cells; [9]): 45.5 ×
ratio of IC95 to EQI-6 (in parentheses) (CCRF-CEM/VM-1 cells; [9]): 90.9 ×
Cytotoxic Concentration IC95 (CCRF-CEM/VM-1 cells; Table 14, CCRF-CEM/VM-1): 1239 nM
IC50 ([3]; Table 2, 833K (Testicular), read-out: concentration required to inhibit cell growth by 50% (IC50)): 318 nM
IC50 ([3]; Table 4, 833k, read-out: Cytotoxic Concentration IC50): 318 nM
IC90 ([3]; Table 4, 833k): 1530 nM
IC50 ([3]; Table 15, 833K, read-out: Cytotoxic Concentration IC50): 394 nM
IC90 ([3]; Table 15, 833K): 2290 nM
Cytotoxic Concentration IC95 ([3]; Table 4, 833k): 2610 nM
ratio of IC50 to EQI-6 (in parentheses) ([3]; Table 4, 833k, EQI-6 = (1)): 45.4 ×
ratio of IC90 to EQI-6 (in parentheses) ([3]; Table 4, 833k, EQI-6 = (1)): 61.2 ×
ratio of IC95 to EQI-6 (in parentheses) ([3]; Table 4, 833k, EQI-6 = (1)): 66.9 ×
Cytotoxic Concentration IC95 ([3]; Table 15, 833K): 4155 nM
IC50 ([4]; Table 2, DC-3F/ADII (MDR/Actinomycin D), read-out: concentration required to inhibit cell growth by 50% (IC50)): 113 nM
IC50 ([4]; Table 4, DC-3F/ADII, read-out: Cytotoxic Concentration IC50): 113 nM
IC90 ([4]; Table 4, DC-3F/ADII): 380 nM
IC50 ([4]; Table 13, DC-3F/ADII, read-out: Cytotoxic Concentration IC50): 74 nM
IC90 ([4]; Table 13, DC-3F/ADII): 264 nM
Cytotoxic Concentration IC95 ([4]; Table 4, DC-3F/ADII): 575 nM
ratio of IC50 to EQI-6 (in parentheses) [4, 10]: 92.2 ×
ratio of IC90 to EQI-6 (in parentheses) [4, 10]: 24.7 ×
ratio of IC95 to EQI-6 (in parentheses) [4, 10]: 26.9 ×
Cytotoxic Concentration IC95 ([4]; Table 13, DC-3F/ADII): 406 nM
IC50 (HL-60 cells; Table 8, HL-60, XTT, growth inhibition, read-out: IC50): 80 nM
IC50 (HL-60 cells; Table 9, HL 60, XTT, 72 h, read-out: Dm): 48 nM
IC50 (MT-2 leukemic cells): 100 nM
IC50 (MT-4 leukemic cells): 150 nM
IC50 [5]: 300 nM
IC50 (DC-3F cells): 59 nM
IC50 (MT4 cells; [11]): 115 nM
IC90 (MT4 cells; [12]): 253 nM
Cytotoxic Concentration IC95 (MT4 cells): 331 nM
IC50 (MT2 cells; [11]): 169 nM
IC90 (MT2 cells; [12]): 398 nM
Cytotoxic Concentration IC95 (MT2 cells): 532 nM
tumor inhibition (B-16 melanoma; 0.5 mg/kg i.p. QDx5, B-16 melanoma): 24.6%
AVE TUMOR VOLUME (T/C) (B-16 melanoma; [13]): 0.952
AWC (average weight change) (B-16 melanoma; [13]): -1.9 g
AVE TUMOR VOLUME (T/C) (B-16 melanoma; [14]): 0.756
AWC (average weight change) (B-16 melanoma; [14]): -0.9 g
AVE TUMOR VOLUME (T/C) (B-16 melanoma; [15]): 0.143
AWC (average weight change) (B-16 melanoma; [15]): +0.4 g
tumor inhibition ([6]; 0.8 mg/kg i.p. QDx5, day 14, Lewis lung adenocarcinoma): 56.3%
Average Tumor Volume (T/C) ([6]; Table 7, 0.4 mg/kg i.p. QDX5, Day 7): 0.490
Average Tumor Volume (T/C) ([6]; Table 7, 0.4 mg/kg i.p. QDX5, Day 10): 0.411
Average Tumor Volume (T/C) ([6]; Table 7, 0.4 mg/kg i.p. QDX5, Day 14): 0.515
Average Tumor Volume (T/C) ([6]; Table 7, 0.8 mg/kg i.p. QDX5, Day 7): 0.356
Average Tumor Volume (T/C) ([6]; Table 7, 0.8 mg/kg i.p. QDX5, Day 10): 0.363
Average Tumor Volume (T/C) ([6]; Table 7, 0.8 mg/kg i.p. QDX5, Day 14): 0.437
mortality ([6]; Table 7, 2.0 mg/kg i.p. QDX5): All of three mice died on day 8 or day 9
Average Tumor Volume (T/C) ([6]; Table 7, 2.0 mg/kg i.p. QDX5, Day 7): 0.169
